This is an account of results in US20110021530A1, “PYRIDAZINE DERIVATIVES AND THEIR USE AS THERAPEUTIC AGENTS IN THE TREATMENT OF SKIN DISORDERS” (XENON PHARMACEUTICALS INC., priority 2008, published 2011).

For one series, the system named is HEPG2. Kind of series: HEPG2 IC50. It is filed as cell-based. The following applies: Homo sapiens.
For series [1], the target named is T1, stearoyl-CoA desaturase (SCD) (Mus musculus, UniProt P13516).
T1 construct: Reactions are started by adding 2 mg of microsomal protein; from tissue; host or cells: liver microsomes of male ICR mice on a high-carbohydrate, low fat diet
T1 sequence (P13516 1-355): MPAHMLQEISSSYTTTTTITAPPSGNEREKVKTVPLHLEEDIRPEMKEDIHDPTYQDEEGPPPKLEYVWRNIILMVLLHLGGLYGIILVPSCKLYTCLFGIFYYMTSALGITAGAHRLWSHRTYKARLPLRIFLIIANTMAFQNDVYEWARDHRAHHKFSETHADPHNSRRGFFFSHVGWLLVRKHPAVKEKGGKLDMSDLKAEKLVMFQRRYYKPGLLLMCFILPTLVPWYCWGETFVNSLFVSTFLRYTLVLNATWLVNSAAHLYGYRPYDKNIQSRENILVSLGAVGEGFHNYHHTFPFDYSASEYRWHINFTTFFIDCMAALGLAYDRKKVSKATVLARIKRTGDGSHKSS
Kind of series: HTS microsomal assay of stearoyl-CoA desaturase inhibition using mouse liver microsomes. The following applies: % SCD enzyme activity remaining at 10 μM test compound. It is filed as biochemical. How it is done: The absence of mitochondrial contamination is enzymatically assessed.
The compounds are analyzed with an HTS microsomal assay.
(Liver microsomes are a subcellular fraction often used to study metabolism.)

Another series has as its target T2, SCD (Mus musculus, UniProt P13516).
T2 sequence (P13516 1-355): T1 sequence (P13516 1-355)
In words: Mouse SCD IC50 determination for compounds active in the HTS assay. It is filed as biochemical.

Regarding `O=C(NCCC1CC1)Nc1ccc(N2CCN(C(=O)c3ccccc3C(F)(F)F)CC2)nn1`, the melting point (usually the temperature of the solid-liquid transition) was > 300 °C.
Take `CC(C)CCNC(=O)c1ccc(N2CCN(C(=O)c3cnn(C)c3C(F)(F)F)CC2)nn1` [6-[4-(1-METHYL-5-TRIFLUOROMETHYL-1H-PYRAZOLE-4-CARBONYL)PIPERAZIN-1-YL]-PYRIDAZINE-3-CARBOXYLIC ACID (3-METHYLBUTYL)AMIDE]: the IC50 (usually the midpoint of a concentration-inhibition curve) with HEPG2 is 440 nM; on SCD it was 350 nM. In addition, the “Mouse microsome SCD activity % remaining @ 10 μM” value in series [1] is given as 15%.
On the same counts, the results for `O=C(NCCC1CC1)c1ccc(N2CCN(Cc3ccc(Cl)cc3Cl)CC2)nn1` [6-[4-(2,4-DICHLOROBENZYL)-PIPERAZIN-1-YL]PYRIDAZINE-3-CARBOXYLIC ACID (2-CYCLOPROPYLETHYL)AMIDE] are 210 nM, 230 nM and 8%.
In the same order, the values of `O=C(NCCC1CC1)c1ccc(N2CCN(C(=O)c3cc(C(F)(F)F)ccc3C(F)(F)F)CC2)nn1` [6-[4-(2,5-BIS-TRIFLUOROMETHYLBENZOYL)PIPERAZIN-1-YL]PYRIDAZINE-3-CARBOXYLIC ACID (2-CYCLOPROPYLETHYL)AMIDE] are 70 nM, 150 nM and 6%.
For `O=C(NCCC1CC1)c1ccc(N2CCN(Cc3cc(Cl)ccc3Cl)CC2)nn1` [6-[4-(2,5-DICHLOROBENZYL)PIPERAZIN-1-YL]PYRIDAZINE-3-CARBOXYLIC ACID (2-CYCLOPROPYLETHYL)AMIDE], the IC50 is 60 nM in the series with HEPG2 and 180 nM on SCD. The “Mouse microsome SCD activity % remaining @ 10 μM” value in series [1] is recorded as 8%.
With `CC(C)CCNC(=O)c1ccc(N2CCN(C(=O)c3ccccc3N)CC2)nn1` [6-[4-(2-AMINOBENZOYL)PIPERAZIN-1-YL]PYRIDAZINE-3-CARBOXYLIC ACID (3-METHYLBUTYL)AMIDE], the concentration for half-maximal inhibition (IC50) with HEPG2 was 640 nM; against SCD, 450 nM. Besides, in series [1], the “Mouse microsome SCD activity % remaining @ 10 μM” value turned out to be 23%.
On the same counts, the results for `O=C(NCCC1CC1)c1ccc(N2CCN(Cc3ccc(F)cc3Cl)CC2)nn1` [6-[4-(2-CHLORO-4-FLUOROBENZYL)PIPERAZIN-1-YL]PYRIDAZINE-3-CARBOXYLIC ACID (2-CYCLOPROPYLETHYL)AMIDE] are 70 nM, 130 nM and 11%.
On the same counts, the results for `CC(C)CCNC(=O)c1ccc(N2CCN(C(=O)c3ccccc3[N+](=O)[O-])CC2)nn1` [6-[4-(2-NITROBENZOYL)PIPERAZIN-1-YL]PYRIDAZINE-3-CARBOXYLIC ACID (3-METHYLBUTYL)AMIDE] are 120 nM, 80 nM and 8%.
With `O=C(NCC1CC1)c1ccc(N2CCN(C(=O)c3ccccc3C(F)(F)F)CC2)nn1` [6-[4-(2-TRIFLUOROMETHYLBENZOYL)PIPERAZIN-1-YL]PYRIDAZINE-3-CARBOXYLIC ACID CYCLOPROPYLMETHYLAMIDE], the results for the IC50 in the series on HEPG2 and against SCD were 5520 nM and 8690 nM, respectively. Also, the “Mouse microsome SCD activity % remaining @ 10 μM” value in series [1] is on record as 49%.
In the same order, the values of `COc1ccc(CCNC(=O)c2ccc(N3CCN(C(=O)c4ccccc4C(F)(F)F)CC3)nn2)cc1` [6-[4-(2-TRIFLUOROMETHYLBENZOYL)PIPERAZIN-1-YL]PYRIDAZINE-3-CARBOXYLIC ACID [2-(4-METOXYPHENYL)ETHYL]AMIDE] are 80 nM, 1630 nM and 7%.
On the same counts, the results for `O=C(NCCC1CC1)c1ccc(N2CCN(C(=O)c3ccoc3C(F)(F)F)CC2)nn1` [6-[4-(2-TRIFLUOROMETHYLFURAN-3-CARBONYL)PIPERAZIN-1-YL]PYRIDAZINE-3-CARBOXYLIC ACID (2-CYCLOPROPYLETHYL)AMIDE] are 290 nM, 260 nM and 7%.
In the same order, the values of `CC(C(=O)N1CCN(c2ccc(C(=O)NCCC3CC3)nn2)CC1)(C(F)(F)F)C(F)(F)F` [6-[4-(3,3,3-TRIFLUORO-2-METHYL-2-TRIFLUOROMETHYLPROPIONYL)PIPERAZIN-1-YL]PYRIDAZINE-3-CARBOXYLIC ACID (2-CYCLOPROPYLETHYL)AMIDE] are 120 nM, 110 nM and 8%.
Take `O=C(NCCC1CC1)c1ccc(N2CCN(C(=O)CC(O)(C(F)(F)F)C(F)(F)F)CC2)nn1` [6-[4-(4,4,4-TRIFLUORO-3-HYDROXY-3-TRIFLUOROMETHYLBUTYRYL)PIPERAZIN-1-YL]PYRIDAZINE-3-CARBOXYLIC ACID (2-CYCLOPROPYLETHYL)AMIDE]: the figures for the IC50 in the series on HEPG2 and against SCD were 120 nM and 480 nM, respectively. In addition, the “Mouse microsome SCD activity % remaining @ 10 μM” value in series [1] is recorded as 8%.
On the same counts, the results for `CC(=CC(=O)N1CCN(c2ccc(C(=O)NCCC(C)C)nn2)CC1)C(F)(F)F` [6-[4-(4,4,4-TRIFLUORO-3-METHYLBUT-2-ENOYL)PIPERAZIN-1-YL]PYRIDAZINE-3-CARBOXYLIC ACID (3-METHYLBUTYL)AMIDE] are 540 nM, 340 nM and 9%.
In the same order, the values of `O=C(NCCC1CC1)c1ccc(N2CCN(Cc3ccc(F)cc3C(F)(F)F)CC2)nn1` [6-[4-(4-FLUORO-2-TRIFLUOROMETHYLBENZYL)-PIPERAZIN-1-YL]PYRIDAZINE-3-CARBOXYLIC ACID (2-CYCLOPROPYLETHYL)AMIDE] are 10 nM, 20 nM and 12%.
On the same counts, the results for `CC(C)CCNC(=O)c1ccc(N2CCN(C(=O)c3cnccc3C(F)(F)F)CC2)nn1` [6-[4-(4-TRIFLUOROMETHYLPYRIDINE-3-CARBONYL)PIPERAZIN-1-YL]PYRIDAZINE-3-CARBOXYLIC ACID (3-METHYLBUTYL)AMIDE] are 240 nM, 80 nM and 8%.
`O=C(NCCC1CC1)c1ccc(N2CCN(Cc3cc(Cl)ccc3C(F)(F)F)CC2)nn1` [6-[4-(5-CHLORO-2-TRIFLUOROMETHYLBENZYL)PIPERAZIN-1-YL]PYRIDAZINE-3-CARBOXYLIC ACID (2-CYCLOPROPYLETHYL)AMIDE]: the IC50 in the series on HEPG2 came out at 40 nM; at SCD it was 60 nM. For the same molecule, the “Mouse microsome SCD activity % remaining @ 10 μM” value in series [1] stood at 7%.
On the same counts, the results for `O=C(NCCC1CC1)c1ccc(N2CCN(Cc3cc(F)ccc3C(F)(F)F)CC2)nn1` [6-[4-(5-FLUORO-2-TRIFLUOROMETHYLBENZYL)PIPERAZIN-1-YL]PYRIDAZINE-3-CARBOXYLIC ACID (2-CYCLOPROPYLETHYL)AMIDE] are 20 nM, 20 nM and 3%.
On the same counts, the results for `O=C(NCCCC1CC1)c1ccc(N2CCN(Cc3cc(F)ccc3C(F)(F)F)CC2)nn1` [6-[4-(5-FLUORO-2-TRIFLUOROMETHYLBENZYL)PIPERAZIN-1-YL]PYRIDAZINE-3-CARBOXYLIC ACID (3-CYCLOPROPYLPROPYL)AMIDE] are 60 nM, 180 nM and 8%.
With `CC(C)CCNC(=O)c1ccc(N2CCN(C(=O)c3cc(Cl)ccc3C(F)(F)F)CC2)nn1` [Example 3.7, 6-[4-(5-CHLORO-2-TRIFLUOROMETHYLBENZOYL)PIPERAZIN-1-YL]PYRIDAZINE-3-CARBOXYLIC ACID (3-METHYLBUTYL)AMIDE], the melting point was in the range of 148 to 151 °C.
On the same count and under the same terms, the figure for `CC(O)(C(=O)N1CCN(c2ccc(C(=O)NCCC3CC3)nn2)CC1)C(F)(F)F` (centres unmarked) [Example 14.8, 6-[4-(3,3,3-TRIFLUORO-2-HYDROXY-2-METHYLPROPIONYL)PIPERAZIN-1-YL]PYRIDAZINE-3-CARBOXYLIC ACID (2-CYCLOPROPYLETHYL)AMIDE] is 181 to 183 °C; for `CC(C)(C)C(O)CNC(=O)c1ccc(N2CCN(C(=O)c3ccccc3C(F)(F)F)CC2)nn1` (centres unmarked) [Example 15.29, 6-[4-(2-TRIFLUOROMETHYLBENZOYL)PIPERAZIN-1-YL]PYRIDAZINE-3-CARBOXYLIC ACID (2-HYDROXY-3,3-DIMETHYLBUTYL)AMIDE] it is 236 to 240 °C; for `CC(C)(C)C(O)CNC(=O)c1ccc(N2CCN(C(=O)c3cc(F)ccc3C(F)(F)F)CC2)nn1` (centres unmarked) [Example 15.30, 6-[4-(5-FLUORO-2-TRIFLUOROMETHYLBENZOYL)PIPERAZIN-1-YL]PYRIDAZINE-3-CARBOXYLIC ACID (2-HYDROXY-3,3-DIMETHYLBUTYL)AMIDE] it is 186 to 189 °C.
On the same count and under the same terms, the figure for `CC(C)CCCNC(=O)c1ccc(N2CCN(C(=O)c3ccccc3C(F)(F)F)CC2)nn1` [Example 15.33, 6-[4-(2-TRIFLUOROMETHYLBENZOYL)PIPERAZIN-1-YL]PYRIDAZINE-3-CARBOXYLIC ACID (4-METHYLPENTYL)AMIDE] is 43 to 45 °C.
Same read-out and setting: the figure for `O=C(NCC(O)c1cccc(F)c1)c1ccc(N2CCN(C(=O)c3ccccc3C(F)(F)F)CC2)nn1` (centres unmarked) [Example 27.4, 6-[4-(2-TRIFLUOROMETHYLBENZOYL)PIPERAZIN-1-YL]PYRIDAZINE-3-CARBOXYLIC ACID [2-(3-FLUOROPHENYL)-2-HYDROXYETHYL]AMIDE] is 117 to 119 °C.
With `O=C(NCCc1ccccn1)c1ccc(N2CCN(C(=O)c3ccccc3C(F)(F)F)CC2)nn1` [Example 28.2, 6-[4-(2-TRIFLUOROMETHYLBENZOYL)PIPERAZIN-1-YL]PYRIDAZINE-3-CARBOXYLIC ACID (2-PYRIDIN-2-YLETHYL)AMIDE], the melting point lay in the range of 151 to 154 °C.
